Patent US20250034139A1, “AMINE COMPOUNDS HAVING ANTI-INFLAMMATORY, ANTIFUNGAL, ANTIPARASITIC, AND ANTICANCER ACTIVITY” (PHARMA CINQ, LLC, priority 2013, published 2025)
In brackets after ≈: the same amount, converted by molar mass. Like-named read-outs stand apart in the source and are kept apart here.

How the values were obtained:
Candida albicans strains = test: Example N: MIC and MFC (CLSI) against Candida albicans; assay type: cell-based; set-up: MIC at 50% inhibition / MIC at 100% inhibition: unit not given here; conditions: for MIC / MFC: Candida albicans, three clinical strains; for MIC: read-out: MIC 100%, Range
Procedure: (§1) The objective of this study was to determine the antifungal activity of eight experimental compounds against a representative panel of fungal isolates, including Candida albicans, C. glabrata, Cryptococcus neoformans, Trichophyton rubrum, Aspergillus fumigatus, and Rhizopus spp. Antifungal activity was measured by minimum inhibitory concentration (MIC) and minimum fungicidal concentration (MFC).
(§2) Three recent clinical strains of each species, taken from the culture collection at the Center for Medical Mycology, Case Western University, were tested.
(§3) Compounds in powder form were dissolved in DMSO. Serial dilutions of each compound were then prepared in RPMI-1640 in a range of […].
(§4) MIC testing was performed according to the CLSI M27-A3 and M38-A2 standards for the susceptibility testing of yeasts and filamentous fungi, respectively (1, 2). Test isolates were subcultured from frozen slants onto potato dextrose agar plates (Trichophyton rubrum was subcultured onto oatmeal plates for conidia production) and checked for purity. Inocula were then prepared in RPMI-1640 (YNB for Cryptococcus) to a concentration of 0.5-2.5×10^3 colony-forming units (CFU)/ml or 0.4-5×10^4 conidia/ml for yeast and filamentous fungi, respectively.
(§5) MFC determinations were performed according to the modifications previously described by Canton et al. and Ghannoum and Isham. (3, 4) Specifically, the total contents of each clear well from the MIC assay were subcultured onto potato dextrose agar. To avoid antifungal carryover, the aliquots were allowed to soak into the agar and then were streaked for isolation once dry, thus removing the cells from the drug source.

Rhizopus strains = test: Example N: MIC and MFC (CLSI) against Rhizopus; assay type: cell-based, Rhizopus spp.; conditions: for MIC50 / MIC: Rhizopus; for MFC: range over Rhizopus strains, in 48 hr
Procedure: as §1, §2, §3, §4, §5

Candida glabrata strains = test: Example N: MIC and MFC (CLSI) against Candida glabrata; assay type: cell-based; conditions: for MIC50 / MIC / MFC: Nakaseomyces glabratus; for MIC: read-out: MIC 100%; for MFC: range over Candida glabrata strains, in 48 hr; for cidal activity (MFC within 4 dilutions of the MIC), in words: 3 strains
Procedure: as §1, §2, §3, §4, §5

THP-1 cells = test: Example C: compound screen, viable THP-1 cell count after 5 hours +/- LPS; assay type: cell-based, Human; conditions: for ability to inactivate pro-inflammatory THP-1 cells, in words (relative to benchmark AC): LPS-treated THP-1 cells
Text: Background: THP-1 is a human acute myeloid leukemia (AML) cell line that can be induced into a macrophage-like cell with vitamin-D3 (vit-D3). In the macrophage, LPS (lipopolysaccharide; endotoxin) stimulation of toll-like receptor 4 (TLR-4) leads to NF-κB activation and secretion of inflammatory cytokines but also the priming of programmed death pathways through RIP and Caspase 8. The balance of this complex regulatory network is dependent on highly specific kinases, enzymes that require ATP. Disruption of either cytosolic pH or ATP availability/energy level uncouples this control network and the can macrophage shift away from production of inflammatory cytokines towards a programmed death event, which has the net effect of limiting inflammatory damage.

[1] = system: Cryptococcus neoformans (serotype A); test: Example L: Cryptococcus neoformans (serotype A) growth inhibition; assay type: cell-based; conditions: Cryptococcus neoformans; for MIC: read-out: MIC, uM (concentration for maximum - 99% of inhibition)
Procedure: Cryptococcus neoformans (serotype A) were plated in 96 well plates with 144 μl/well of 5×10e5 CFU/ml in YPD growth medium. Diluted compounds were then added to each well with concentration ranged from 0.05 to 10 μM as final concentration in duplicates. The plates were inoculated at 30° C. Two readings of OD at 600 nm were measured after 18 hr and […] treatments.
C12-imidazol had relative weak activity against Cryptococcus serotype A at low concentration. Data plotted was based on 26 hour reading because 18 hour reading was too low.
• 1. Pick a single colony of Cryptococcus from the Sabouraud Dextrose agar plate using the inoculum loop and inoculate into a 125 ml flask containing 25 ml of YPD growth medium • 2. Incubate at 30° C. with shaking at 220 rpm for 24 hours with loosen lid to allow air in and facilitates growth. • 3. Examine an aliquot of the culture under a microscope for yeast cell morphology and lack of bacterial contamination. • 4. Dilute the overnight culture with YPD medium at 1:100 dilution and count the number of cells as 8×10^6 cfu/ml. • 5. Make a final concentration of cells suspension at 5×10^5 cfu/ml in YPD medium after the stock culture had been stored at 4° C. for 3 days. • 6. Plate 144 μl/well of 5×10^5 cfu/ml cell suspension on 96-well plates. Part-II: Cryptococcus Growth Inhibition Testing with Compounds • 1. From 10 mM DMSO stock solutions, make serial dilutions of compounds to 0.0013, 0.0025, 0.0125, 0.025, 0.05, 0.125 and 0.25 mM solution • 2. Add 6 ul each of diluted compound solutions per well in duplicates. The final concentrations were 0, 0.05, 0.1, 0.5, 1.0, 2.0, 5.0 and 10 micromolar. • 3. Incubated all plates at 30° C. overnight with 175 rpm shaking. • 4. Read absorbance at OD600 after 18 and 26 hours for each plate. • 5. Calculated the % inhibition and IC50 of each compound against the untreated cell.

[2] = system: imiquimod-induced dermatitis
Procedure, shortened: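 Female Balb/C mice (8 weeks, n=5/group) received 5% imiquimod on both ears daily for 5 days, then every other day; topical test ointments applied to both ears from day 7. Petrolatum with 10% ethanol served as vehicle. Ear thickness and PASI (swelling, erythema, scaling, 0–12) recorded twice weekly.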

[3] = Macrophage, direct inhibition, values of the earlier study (Table 25), read-out: IC50 value (μM) for inhibition of fungal growth, No macrophages
[4] = read-out: IC50, uM (concentration for 50% of inhibition), OD of 26 hour reading, 30° C., XLfit
[5] = OD of 26 hour reading, 30° C., XLfit

Row | Structure (SMILES) | MIC (Candida albicans strains; 24 hr) [µg/mL] | MIC (Candida albicans strains; 48 hr) [µg/mL] | MFC (Candida albicans strains; 48 hr) [µg/mL] | MIC50 (Rhizopus strains; 24 h) [µg/mL] | MIC (Rhizopus strains; 24 h, read-out: MIC 100%) [µg/mL] | MIC50 (Rhizopus strains; 48 h) [µg/mL] | MIC (Rhizopus strains; 48 h, read-out: MIC 100%) [µg/mL] | MFC (Rhizopus strains) [µg/mL] | MIC50 (Candida glabrata strains; 24 h) [µg/mL] | MIC (Candida glabrata strains; 24 h) [µg/mL] | MIC50 (Candida glabrata strains; 48 h) [µg/mL] | MIC (Candida glabrata strains; 48 h) [µg/mL] | MFC (Candida glabrata strains) [µg/mL] | Reduction in viable THP-1 cell count (percent change) from 0 hours, Mean ± SE (THP-1 cells; Compound (0.1 μM), No LPS) [%] | Reduction in viable THP-1 cell count (percent change) from 0 hours, Mean ± SE (THP-1 cells; Compound (0.1 μM), Plus LPS) [%] | Reduction in viable THP-1 cell count (percent change) from 0 hours, Mean ± SE (THP-1 cells; Compound (1.0 μM), No LPS) [%] | Reduction in viable THP-1 cell count (percent change) from 0 hours, Mean ± SE (THP-1 cells; Compound (1.0 μM), Plus LPS) [%] | ability to inactivate pro-inflammatory THP-1 cells, in words (relative to benchmark AC) (THP-1 cells) | IC50 [1, 3] [µM] | MIC [1, 5] [µM] | also measured
1 | CCCCOCCCCCCCCCCNc1ccnc2ccccc12 [AM, N-(10-Butoxydecyl)quinolin-4-amine] | 2 to 4 (≈ 5.61 to 11.2 µM) | 2 to 4 (≈ 5.61 to 11.2 µM) | 4 (≈ 11.2 µM) | 1 to 2 (≈ 2.8 to 5.61 µM) | 2 to 4 (≈ 5.61 to 11.2 µM) | 2 to 4 (≈ 5.61 to 11.2 µM) | 4 (≈ 11.2 µM) | 8 to 32 (≈ 22.4 to 89.7 µM) | 1 to 2 (≈ 2.8 to 5.61 µM) | 2 to 4 (≈ 5.61 to 11.2 µM) | 2 to 4 (≈ 5.61 to 11.2 µM) | 2 to 4 (≈ 5.61 to 11.2 µM) | 4 to 8 (≈ 11.2 to 22.4 µM) | −5.57 ± 2.67 | −19.80 ± 1.96 | −8.47 ± 3.31 | −44.05 ± 1.38 | higher activity than the active benchmark compound AC | 1.57 | 10.5 (≈ 3.75 µg/mL) | IC50 [1, 4]: 1.57 µM
2 | CCCCCCOc1cccc(CNc2ccnc3ccccc23)c1 [Compound AC, N-[3-(Hexyloxy)benzyl]quinolin-4-amine] | 0.12 to 1 (≈ 0.359 to 2.99 µM) | 0.5 to 2 (≈ 1.49 to 5.98 µM) | 2 (≈ 5.98 µM) | 0.12 to 0.25 (≈ 0.359 to 0.747 µM) | 0.5 (≈ 1.49 µM) | 0.5 (≈ 1.49 µM) | 0.5 to 1 (≈ 1.49 to 2.99 µM) | 16 to 64 (≈ 47.8 to 191 µM) | 0.5 to 1 (≈ 1.49 to 2.99 µM) | 1 to 2 (≈ 2.99 to 5.98 µM) | 1 to 2 (≈ 2.99 to 5.98 µM) | 2 to 4 (≈ 5.98 to 12 µM) | 4 to 8 (≈ 12 to 23.9 µM) | −7.48 ± 5.82 | −15.14 ± 2.06 | −9.60 ± 1.96 | −44.25 ± 2.53 | – | 1.15 | 12.6 (≈ 4.2 µg/mL) | cidal activity (MFC within 4 dilutions of the MIC), in words (Candida albicans strains; 3 strains): cidal against 2 of the 3 C. albicans strains tested; MIC at 50% inhibition (Candida albicans strains; 24 hrs): <0.12-0.25; MIC at 100% inhibition (Candida albicans strains; 24 hrs): <0.12-1; MIC at 50% inhibition (Candida albicans strains; 48 hrs): <0.12-1; MIC at 50% inhibition (Rhizopus strains; 24 hrs): <0.12-0.25; MIC at 100% inhibition (Rhizopus strains; 24 hrs): 0.5 µg/mL (≈ 1.49 µM); MIC (Rhizopus strains; read-out: MIC at 50% inhibition, 48 hr): 0.5 µg/mL (≈ 1.49 µM); MIC (Rhizopus strains; read-out: MIC at 100% inhibition, 48 hr): 0.5 to 1 µg/mL (≈ 1.49 to 2.99 µM); cidal activity (MFC within 4 dilutions of the MIC), in words (Candida glabrata strains): cidal against all of the C. glabrata strains tested; Ear thickness, Mean ± SEM ([2]; imiquimod-treated mice, topical ointment 0.06% active drug (dexamethasone 0.03%, tacrolimus 0.1%)): 0.501 ± 0.030; Body Weight (mean ± SEM), Final ([2]; mouse, in vivo): 21.3 ± 0.6 g; Body Weight (mean ± SEM), Initial ([2]; mouse, in vivo): 21.1 ± 0.7 g; D BW (g) ([2]; mouse, in vivo): +0.2 g; PASI Score, Mean ± SEM ([2]; scale 0-12, topical ointment 0.06% active drug (dexamethasone 0.03%, tacrolimus 0.1%)): 7.150 ± 0.221
3 | CCCCCCCCCCNc1ccnc2ccccc12 [Compound AG, N-(Decyl)quinolin-4-amine] | 0.5 to 2 (≈ 1.76 to 7.03 µM) | 1 to 4 (≈ 3.52 to 14.1 µM) | 2 to 4 (≈ 7.03 to 14.1 µM) | 1 to 2 (≈ 3.52 to 7.03 µM) | 2 (≈ 7.03 µM) | 2 to 4 (≈ 7.03 to 14.1 µM) | 2 to 4 (≈ 7.03 to 14.1 µM) | 4 to 16 (≈ 14.1 to 56.2 µM) | 0.25 to 1 (≈ 0.879 to 3.52 µM) | 0.5 to 2 (≈ 1.76 to 7.03 µM) | 0.5 to 2 (≈ 1.76 to 7.03 µM) | 0.5 to 2 (≈ 1.76 to 7.03 µM) | 4 (≈ 14.1 µM) | −6.24 ± 0.69 | −21.28 ± 1.52 | −4.02 ± 2.83 | −38.58 ± 0.73 | higher activity than the active benchmark compound AC | – | 11.4 (≈ 3.23 µg/mL) | cidal activity (MFC within 4 dilutions of the MIC), in words (Candida glabrata strains): cidal against all of the C. glabrata strains tested; IC50 [1, 4]: 2.14 µM
4 | CCCCCCCCCCNc1ncnc2ccccc12 [Compound AH, N-(Decyl)quinazolin-4-amine] | 0.12 to 4 (≈ 0.42 to 14 µM) | 1 to 4 (≈ 3.5 to 14 µM) | 4 to 32 (≈ 14 to 112 µM) | 0.25 to 0.5 (≈ 0.876 to 1.75 µM) | 2 (≈ 7.01 µM) | 2 (≈ 7.01 µM) | 2 (≈ 7.01 µM) | 64 (≈ 224 µM) | 2 (≈ 7.01 µM) | 4 to 8 (≈ 14 to 28 µM) | 4 to 8 (≈ 14 to 28 µM) | 4 to 8 (≈ 14 to 28 µM) | 8 to 64 (≈ 28 to 224 µM) | −9.66 ± 1.34 | −26.55 ± 0.95 | −7.87 ± 0.98 | −35.51 ± 3.90 | higher activity than the active benchmark compound AC | 0.39 | 12 (≈ 3.43 µg/mL) | MIC at 100% inhibition (Rhizopus strains; 24 hrs): 2 µg/mL (≈ 7.01 µM); MIC at 50% inhibition (Rhizopus strains; 48 hr): 2 µg/mL (≈ 7.01 µM); MIC at 100% inhibition (Rhizopus strains; 48 hr): 2 µg/mL (≈ 7.01 µM); IC50 [1, 4]: 0.39 µM
